The source of these data is PubChem BioAssay AID1918937 (Molecular Pharmacology Branch, DTP, NCI, 2023).

By viability, T/C is commonly meant the result in the treated group divided by that in the control group, in per cent. The term IC50 denotes the concentration at which inhibition is half-maximal.

Several values for one entry are separate records, joined by “and”; a condition that tells them apart may be missing. Equal values may be shown once.

In the experiment the test system is 521955-158-R2-J5-PDC complex spheroid viability. The experiment is described as follows: Anticancer human tumor 521955-158-R2-J5-PDC patient-derived pancreatic carcinoma cell line growth inhibition. The settings on record: for viability, T/C: stronger effect = lower value; for IC50: curve of compound. An excerpt: Multicellular complex tumor spheroid response to LSD1 Inhibitor Iadademstat in combination with a variety of drugs and investigational agents in selected tumor cell lines
The current study was undertaken to assess response to LSD1 inhibitors in combination with standard-of-care drugs and investigational agents in solid tumor complex spheroid models as well as in the K-562 leukemia. Complex spheroids include a stromal component modeled by human endothelial cells (HUVEC) and fibroblasts modeled by human mesenchymal stem cells (MSCs). The concentration ranges selected for each drug and investigational agent were based upon clinically achievable concentrations if the clinical Cmax of the agent was known.
Compounds. The drugs and investigational agents used in this study are listed on Table 1. All of the agents used, including staurosporine (NSC755774) and gemcitabine (NSC613327), were obtained from the Developmental Therapeutics Program, NCI. FDA-approved anticancer drugs are available from the NCI at http://dtp.nci.nih.gov/branches/dscb/oncology_drugset_explanation.html. Drugs and investigational agents were >95% pure by proton nuclear magnetic resonance (NMR) and liquid chromatography/mass spectrometry (LC/MS). Stock solutions were prepared at 400x in DMSO, stored at -70 degrees C, and diluted in fresh medium prior to their use. The final concentration of DMSO in cell culture wells never exceeded 0.25% (v/v). The FDA-approved anticancer drug set is available from the Developmental Therapeutics Program at https://dtp.cancer.gov/organization/dscb/obtaining/available_plates.htm. All drugs and investigational agents were tested over a range starting from a high concentration at or near the clinical Cmax and decreasing in half-log increments. If the clinical Cmax for an agent had not been determined, the highest concentration tested was 10 microM.
Cell Lines. The patient-derived cancer cell (PDC) lines: 292921-168-R-J2-PDC, K24384-001-R-PDC, and 521955-158-R2-J5-PDC pancreatic carcinomas, 556581-035-R-J1 ovarian carcinoma, 324938-238-R-J1-PDC, 855422-203-R-J1-PDC and 883617-216-R-J1-PDC urothelial bladder carcinomas, 743489-274-T-PDC renal cell carcinoma, 138582-R-J1 Merkel cell tumor, K60290-347-R-J1 and K57222-313-R-J1-PDC glioblastomas, 653999-131-R-J2-PDC, LG0703-F948-PDC, and 349418-098-R-PDC non-small cell lung carcinomas, 885512-296-R-J2-PDC, 171881-019-R-J1-PDC breast carcinomas and 186277-243-T-J2-PDC and 233499-124-R-J2-PDC colon carcinomas were obtained from the NCI Patient-Derived Models Repository (PDMR, https://pdmr.cancer.gov). The established cell lines NCI/ADR-RES (RRID:CVCL_14520 and OVCAR-5 (RRID:CVCL_1628) ovarian carcinomas, 786-O (RRID:CVCL_1051) and A498 (RRID:CVCL_A498) renal cell carcinoma, NCI-H211 (ATCC, cat. CRL-5824; RRID:CVCL_1529), NCI-H196 (ATCC, cat. CRL-5823, RRID:CVCL_1509), SW 1271 (ATCC, cat. CRL-2177, RRID:CVCL_1716) and NCI-H1876 (ATCC, cat. CRL-5902, RRID:CVCL_1503) small cell lung carcinomas, MDA-MB-231 (RRID:CVCL_0062) and MDA-MB-468 (RRID:CVCL_0419)breast carcinomas (10-12). Pooled donor human umbilical vein endothelial cells (HUVEC, Lonza, cat. CC-2519) and human mesenchymal stem cells (hMSC, Lonza, cat. PT-2501) were purchased from Lonza (Walkersville, MD).
Cell Culture. All cells were maintained in an incubator at 37 degrees C and 5% CO2 with 95% humidity. The PDC lines were cultured according to standard operating procedures established by the NCI PDMR (https://pdmr.cancer.gov). Briefly all PDCs were thawed and cultured in Matrigel-coated flasks prepared with a working solution of 1X Ham's F-12 nutrient mix, without supplementation (Invitrogen, Waltham, MA, cat. 11765054), 100 U/mL penicillin-streptomycin (Invitrogen, cat. 15140122), and 2.5% Matrigel (Corning Inc., Corning, NY, cat. 354248) for the first three passages. […]
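Also: spheroids exposed to agents for seven days.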
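For viability, T/C in this document: percent of DMSO vehicle control luminescence viability.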

Regarding `CC(C)CC(NC(=O)C(Cc1ccccc1)NC(=O)c1cnccn1)B(O)O` (stereo not drawn), the IC50 is 0.488 nM and 0.537 nM. Further, the viability, T/C (compound 0.000316 µM) was 79.9% and 91.8%. Further, the viability, T/C (compound 0.001 µM) is 0.42% and 0.86%. For the same compound, the viability, T/C (compound 0.00316 µM) is 0.29% and 0.43%. Moreover, the viability, T/C (compound 0.01 µM) is 0.18% and 0.38%. The viability, T/C (compound 0.0316 µM) is 0.31% and 0.4%. Also, the viability, T/C (compound 0.1 µM) was 0.21% and 0.45%.
Regarding `CC(C)CC(NC(=O)CNC(=O)c1cc(Cl)ccc1Cl)B1OC(=O)CC(CC(=O)O)(C(=O)O)O1` (stereo not drawn), the IC50 is 5.19 nM and 6.18 nM. Moreover, for the setting “compound 0.000316 µM”, the viability, T/C was 107% and 105%. Further, the viability, T/C (compound 0.001 µM) was 106%. For the same compound, the viability, T/C (compound 0.00316 µM) was 82.2% and 97.3%. For the same compound, the viability, T/C (compound 0.01 µM) is 7.33% and 16.1%. Further, for the setting “compound 0.0316 µM”, the viability, T/C was 0.46% and 1.77%. Further, the viability, T/C (compound 0.1 µM) is 0.41% and 0.54%.
Take `CC1(C)CCC(CN2CCN(c3ccc(C(=O)NS(=O)(=O)c4ccc(NCC5CCOCC5)c([N+](=O)[O-])c4)c(Oc4cnc5[nH]ccc5c4)c3)CC2)=C(c2ccc(Cl)cc2)C1`: the IC50 was 3960 nM and 4600 nM. For the same compound, the viability, T/C (compound 0.0316 µM) was 103% and 110%. For the same compound, where the note is “compound 0.1 µM”, the viability, T/C is 112% and 110%. Besides, where the note is “compound 0.316 µM”, the viability, T/C was 107% and 115%. Further, where the note is “compound 1 µM”, the viability, T/C is 103% and 111%. In addition, the viability, T/C (compound 3.16 µM) was 62% and 73.6%. Also, the viability, T/C (compound 10 µM) was 0.69% and 0.97%.
Consider `CC1COCCN1c1cc(-c2ccnn2C)c2ccnc(-c3ccn[nH]3)c2n1` (stereo not drawn), for which the IC50 was < 3.16 nM. The viability, T/C (compound 0.00316 µM) is 10.8% and 14.6%. For the same compound, the viability, T/C (compound 0.01 µM) is 10.8% and 12.3%. The viability, T/C (compound 0.0316 µM) was 11.1% and 13%. The viability, T/C (compound 0.1 µM) is 18.1% and 21.3%. The viability, T/C (compound 0.316 µM) was 21.6% and 24.3%. Under “compound 1 µM”, the viability, T/C is 12.5% and 17.1%.
Take `CCN(c1cc(-c2ccc(CN3CCOCC3)cc2)cc(C(=O)NCc2c(C)cc(C)[nH]c2=O)c1C)C1CCOCC1`: the IC50 was 2600 nM and > 3000 nM. Also, under “compound 0.00949 µM”, the viability, T/C is 102% and 106%. Moreover, the viability, T/C (compound 0.03 µM) was 100% and 106%. In addition, the viability, T/C (compound 0.0949 µM) was 98.5% and 102%. Moreover, the viability, T/C (compound 0.3 µM) was 83.5% and 102%. Also, the viability, T/C (compound 0.949 µM) is 73.1% and 87.9%. Moreover, the viability, T/C (compound 3 µM) was 46.6% and 75%.
Regarding `CC[C@@]1(O)C(=O)OCc2c1cc1n(c2=O)Cc2cc3c(CN(C)C)c(O)ccc3nc2-1`, the IC50 is 5.21 nM and 6.17 nM. In addition, where the note is “compound 0.000316 µM”, the viability, T/C was 108% and 106%. Also, the viability, T/C (compound 0.001 µM) is 109% and 103%. Also, the viability, T/C (compound 0.00316 µM) is 77.4% and 85.3%. The viability, T/C (compound 0.01 µM) is 14.3% and 24.3%. Further, under “compound 0.0316 µM”, the viability, T/C is 7.49% and 11.1%. Also, the viability, T/C (compound 0.1 µM) is 6.01% and 6.55%.
Turning to `CCc1c2c(nc3ccc(O)cc13)-c1cc3c(c(=O)n1C2)COC(=O)[C@]3(O)CC`, the IC50 was < 0.949 nM. In addition, the viability, T/C (compound 0.000949 µM) was 4.87% and 6%. The viability, T/C (compound 0.003 µM) is 3.58% and 4.94%. For the setting “compound 0.00949 µM”, the viability, T/C is 1.12% and 1.08%. Also, the viability, T/C (compound 0.03 µM) was 0.53% and 1.39%. Further, the viability, T/C (compound 0.0949 µM) was 0.45% and 1.25%. Also, the viability, T/C (compound 0.3 µM) is 0.6% and 1.68%.
Consider `COc1cc(C2c3cc4c(cc3C(OC3OC5COC(C)OC5C(O)C3O)C3COC(=O)C23)OCO4)cc(OC)c1O` (stereo not drawn), for which the concentration for half-maximal inhibition (IC50) was 71.5 nM and 151 nM. Also, for the setting “compound 0.00949 µM”, the viability, T/C is 98.3% and 103%. Moreover, under “compound 0.03 µM”, the viability, T/C was 88.7% and 100%. For the same compound, the viability, T/C (compound 0.0949 µM) was 36.7% and 63.7%. Also, under “compound 0.3 µM”, the viability, T/C was 16.6% and 28.2%. Moreover, the viability, T/C (compound 0.949 µM) was 9.58% and 15.6%. In addition, the viability, T/C (compound 3 µM) is 8.64% and 9.05%.
In the case of `COc1cc(Nc2ncc3c(n2)-c2ccc(Cl)cc2C(c2c(F)cccc2OC)=NC3)ccc1C(=O)O`, the IC50 was 154 nM and > 1000 nM. Besides, the viability, T/C (compound 0.00316 µM) was 46.9% and 75.9%. Moreover, the viability, T/C (compound 0.01 µM) was 56.3% and 81.6%. In addition, the viability, T/C (compound 0.0316 µM) was 57.4% and 74.7%. For the same compound, the viability, T/C (compound 0.1 µM) was 46.7% and 67.2%. Further, where the note is “compound 0.316 µM”, the viability, T/C is 49% and 61.8%. Also, the viability, T/C (compound 1 µM) was 42% and 61.7%.
